This passage reports TGI and GI50 results from PubChem BioAssay (NCI).

SMILES strings stand for the structures. Values joined by “and” are separate entries in the source; they are usually repeats but may differ in a detail not shown here. Equal values may be shown once.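 Where inhibition never reached the appropriate level, the endpoint shown equals the highest concentration tested. Otherwise, values were interpolated linearly from a five-concentration, 48-hour dose response in 96-well plates. Abbreviation: GI50, concentration required for 50% inhibition of growth. TGI marks complete inhibition of growth.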

Assay in all cases: NCI-60 cell line screen, 48 h
Assay [1] concerns U251 CNS.
Assay [2] deals with OVCAR-3 ovarian.
For assay [3], the system named is CAKI-1 renal.
For assay [4], the system named is SK-MEL-28 melanoma.
Assay [5] concerns SR leukemia.
The test system of assay [6] is HCT-116 colon.
Assay [7] deals with K-562 leukemia.
The subject of assay [8] is NCI-H23 lung.
In assay [9] the test system is BT-549 breast.
Assay [10] concerns OVCAR-8 ovarian.

As for `O=C(CN1CCOCC1)c1ccc2c(c1)oc(=O)n2CCN1CCCCC1`, the TGI in assay [1], in assay [2], in assay [3], in [4], in assay [5] and in assay [6] was above 100 µM in each case. In addition, the TGI in assay [7], in [8], in assay [9] and in assay [10] was above 100 µM throughout.
For the compound `CCOC1=NC(C(F)(F)F)(C(F)(F)F)N=C(/N=C(/N)N(C)C(C(C)C)P(=O)(OC(C)C)OC(C)C)O1` (configuration not stated), the TGI in assay [1], in [2], in [3], in assay [4], in assay [5] and in assay [6] was above 100 µM throughout. The TGI in [7], in assay [8], in assay [9] and in [10] was above 100 µM throughout.
Regarding `CC(=O)Nc1ccc2cc3c(nc2n1)c1cccnc1n3S(=O)(=O)c1ccccc1`, the TGI in assay [1], in assay [2], in [3], in assay [4], in assay [5] and in assay [6] was above 100 µM each time. The TGI in [7], in [8], in assay [9] and in assay [10] was above 100 µM in each case.
On to `O=C(O)Cc1ccc(-n2nnc3c(=O)[nH][nH]c(=O)c32)cc1`, for which the TGI in assay [1], in [2], in assay [3], in assay [4], in assay [5] and in assay [6] was above 100 µM in each case. Besides, the TGI in assay [7], in assay [8], in assay [9] and in [10] was above 100 µM each time.
With `CC1(C)C/C=C\CCC(O)C(O)CCC(C)(C)C1=O` (configuration not stated), the TGI in [1], in [2], in assay [3], in [4], in assay [5] and in assay [6] was above 100 µM each time. The TGI in [7], in assay [8], in assay [9] and in assay [10] was above 100 µM in each case.
In the case of `O=C1N(c2ccccc2)N=C2c3ccncc3C3=NN(c4ccccc4)C(=O)C123` (configuration not stated), the TGI in [1], in assay [2], in assay [3], in [4], in assay [5] and in assay [6] was above 100 µM throughout. Moreover, the TGI in assay [7], in assay [8], in assay [9] and in assay [10] was above 100 µM each time.
As to `ClC1(Cl)C2CCOC21n1cnc2ccccc21` (configuration not stated), the TGI in assay [1], in assay [2], in [3], in assay [4], in assay [5] and in assay [6] was above 100 µM each time. The TGI in [7], in [8], in assay [9] and in assay [10] was above 100 µM throughout.
For the compound `CCOC(=O)C1=CN(Cc2ccccc2)C2ON=C(c3ccc(Cl)cc3)C2C1` (configuration not stated), the TGI was 30.7 µM in assay [1]; above 67.1 µM in assay [2]; above 85.1 µM in assay [3]; above 71.8 µM in assay [4]; 97.4 µM in assay [5]; above 61.9 µM in [6]. The TGI in [7] was above 100 µM; in [8], above 66.8 µM; in assay [9], above 56.4 µM; in [10], above 67.4 µM.
On to `C/C(=N\Nc1nc2ccccc2[nH]1)c1ccc2ccccc2n1`, for which the TGI in assay [1] is 14.3 µM; in assay [2], 2.95 µM; in assay [3], 1.54 µM; in [4], 23 µM; in assay [5], 0.448 µM; in assay [6], 7.48 µM. In addition, the TGI in assay [7] was 6.72 µM; in assay [8] it was 16.1 µM; in [9], above 100 µM; in assay [10], above 100 µM.
Regarding `N#C[C@H](c1nc2ccccc2[nH]1)c1nc2ccccc2nc1Cl`, the TGI is 58.9 µM in assay [1]; above 100 µM in assay [2]; 15.3 µM in assay [3]; 49 µM in assay [4]; 13.8 µM in assay [5]; 24.2 µM in assay [6]. In addition, the TGI in assay [7] was above 100 µM; in [8], above 54.3 µM; in assay [9], above 47.8 µM; in assay [10], above 100 µM.
`COC(=O)/C=C/c1cc(OC)c2c(c1)C(C(=O)OC)C(c1ccc(O)c(OC)c1)O2` (configuration not stated): the TGI in [1] was > 45 µM and > 54.2 µM and 48.3 µM; in [2], > 27 µM and > 25.6 µM and 19.8 µM; in [3], 14.3 µM and 11.9 µM and > 74 µM; in [4], > 100 µM and > 70.4 µM and 86.7 µM; in [5] it was > 25.7 µM and 3.91 µM; in assay [6], > 100 µM and > 46.7 µM and 19.7 µM. Moreover, the TGI is above 50.3 µM in [7]; > 100 µM and 13 µM and 56.5 µM in assay [8]; > 42.3 µM and 18.9 µM and > 90.5 µM in assay [9]; > 100 µM and > 72.2 µM and 21.6 µM in assay [10]. Besides, the GI50 in assay [2] was 4.97 µM and 3.89 µM and 2 µM; in assay [3], 2.63 µM and 2.04 µM and 12.2 µM; in assay [4] it was > 56.3 µM and 18.9 µM and 9.69 µM; in assay [6] it was 4.22 µM and 3.67 µM and 1.1 µM; in [7], 1.51 µM and 1.11 µM and 0.579 µM; in assay [9], 4.54 µM and 1.87 µM and 18.2 µM. For the same compound, in assay [10], the GI50 was 10.8 µM and 4.76 µM and 2.32 µM.
On to `CC(C)(C)OC(=O)/C=C/[C@@H](CCC(=O)/C=C/[C@H](/C=C\CCCC(=O)O)NC1(c2ccccc2)c2ccccc2-c2ccccc21)O[Si](C)(C)C(C)(C)C`, for which the TGI in [1] is 30.9 µM; in assay [2], 32.9 µM; in assay [3] it was 67.8 µM; in assay [4] it was 69.6 µM; in assay [5] it was above 100 µM; in assay [6], 30.2 µM. Also, the TGI in assay [7] was above 100 µM; in assay [8], 36.6 µM; in assay [9], 33 µM; in assay [10], 55 µM.
As for `O=C1CN2CCN(CC2)CC(=O)Nc2ccc(cc2)S(=O)(=O)c2ccc(cc2)NC(=O)CN2CCN(CC2)CC(=O)Nc2ccc(cc2)S(=O)(=O)c2ccc(cc2)N1`, the TGI in assay [1] is above 94.3 µM; in assay [2] it was above 100 µM; in assay [3] it was above 100 µM; in [4], above 100 µM; in assay [5] it was above 100 µM; in assay [6], 71.9 µM. In addition, the TGI was above 100 µM in assay [7], above 90.4 µM in [8], above 87.9 µM in assay [9] and above 100 µM in assay [10].
